Measurements as given in patent US20220304947A1, “COMPOSITIONS AND METHODS FOR INHIBITING PROTEOLYTIC ACTIVATION OF VIRUSES” (priority 2021, published 2022).
Where two headings read alike, the source gives them in different places. Residues, ends and D or L forms follow the SMILES beside them. *: point of attachment. Decanoyl = CCCCCCCCCC(=O)*; CH2Cl = ClC*

Experiments:
[1] = biological target: Recombinant human Furin protein (Homo sapiens, UniProt P09958); assay: Inhibition of proteolytic enzyme (Furin) activity, fluorogenic substrate pGlu-Arg-Thr-Lys-Arg-AMC; assay type: biochemical; conditions: for inhibition at 6.25 µg/mL: at 6.25 μg/ml; for inhibition at 100 µg/mL: at 100 μg/ml
Recombinant human Furin protein, sequence (P09958 108-794): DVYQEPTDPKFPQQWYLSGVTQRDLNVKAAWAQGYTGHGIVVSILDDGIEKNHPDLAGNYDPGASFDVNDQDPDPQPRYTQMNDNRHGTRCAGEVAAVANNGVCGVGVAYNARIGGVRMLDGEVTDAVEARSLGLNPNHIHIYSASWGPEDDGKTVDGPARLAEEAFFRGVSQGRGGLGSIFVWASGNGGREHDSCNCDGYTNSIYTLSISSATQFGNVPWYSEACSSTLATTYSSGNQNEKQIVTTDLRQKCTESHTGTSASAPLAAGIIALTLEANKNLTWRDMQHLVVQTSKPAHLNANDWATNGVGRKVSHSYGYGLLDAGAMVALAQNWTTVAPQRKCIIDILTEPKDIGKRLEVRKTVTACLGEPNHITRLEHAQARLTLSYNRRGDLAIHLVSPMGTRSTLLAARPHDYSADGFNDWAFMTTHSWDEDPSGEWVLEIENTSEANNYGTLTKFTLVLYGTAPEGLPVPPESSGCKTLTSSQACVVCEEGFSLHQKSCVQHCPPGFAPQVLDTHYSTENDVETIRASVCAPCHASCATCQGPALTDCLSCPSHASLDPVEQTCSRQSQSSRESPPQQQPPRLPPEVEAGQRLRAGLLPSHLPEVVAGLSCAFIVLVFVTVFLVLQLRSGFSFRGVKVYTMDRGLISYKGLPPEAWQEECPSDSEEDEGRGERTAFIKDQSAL

SARS-CoV-2 = assay: Anti-viral assay against SARS-CoV-2 in Vero E6 cells (qRT-PCR viral load); assay type: cell-based; conditions: Ribavirin 2 μM, compared to infected cells only
[2] = read-out: Percentage inhibition of Furin
[3] = read-out: IC50, inhibition of Furin (converted)

SMILES	IC50 ([1]; read-out: IC50, inhibition of Furin (positive control))	inhibition at 6.25 µg/mL [1, 2]	inhibition at 25 µg/mL ([1]; at 25 μg/ml, read-out: Percentage inhibition of Furin)	inhibition at 100 µg/mL [1, 2]	IC50 [1, 3]	reduction of viral load (SARS-CoV-2)
CCCCCCCCCC(=O)N[C@@H](CCCNC(=N)N)C(=O)N[C@H](C(=O)N[C@@H](CCCCN)C(=O)N[C@@H](CCCNC(=N)N)C(=O)CCl)C(C)C [Decanoyl RVKR chloromethyl ketone] (Decanoyl-RVKR-CH2Cl)	0.0134 µM					
COc1cc(/C=C/C(=O)CC(=O)/C=C/c2ccc(O)c(OC)c2)ccc1O [Curcumin]		9.64%	64.2%	72.6%	62.6 µM	
O=C(/C=C/c1ccc(O)cc1)CC(=O)/C=C/c1ccc(O)cc1 [BDMC, Bisdemethoxycurcumin]		34%		78%	48 µM	
NC(=O)c1ncn([C@@H]2O[C@H](CO)[C@@H](O)[C@H]2O)n1 [Ribavirin]						83%
